Measurements: patent US5188642A, “Glyphosate-resistant plants” (priority 1990, dated 1993)

Assays:
MP4 cells = test: Culture of MP4 petunia suspension cells in MS media containing glyphosate; assay type: cell-based; conditions: 0.5 mM glyphosate (sodium salt)
Description: The starting cell line, designated as the MP4 line, was derived from a Mitchell diploid petunia (see, e.g., Ausubel 1980). The MP4 cells were suspended in Murashige and Skoog (MS) culture media, (GIBCO, Grand Island, N.Y.) All transfer involved the transfer of 10 ml of suspension culture into 50 ml of fresh media. Cultivation periods until the next transfer ranged from 10 to 14 days, and were based on visual indications that the culture was approaching saturation.
After two transfers, the surviving cells were transferred into fresh media containing 1.0 mM glyphosate. After two transfers at 1.0 mM, the surviving cells were transferred sequentially into 2.5 mM glyphosate, 5.0 mM glyphosate, and 10 mM glyphosate. The MP4-G cells were subsequently shown (by a Southern blot) to have about 15-20 copies of the EPSPS gene, due to a genetic process called "gene amplification" (see, e.g., Schimke 1982). Although spontaneous mutations might have occurred during the replication of any cell, there is no indication that any mutation or other modification of the EPSPS gene occurred during the gene amplification process. The only known difference between the MP4 and the MP4-G cells is that the MP4-G cells contain multiple copies of an EPSPS gene and possibly other genes located near it on the chromosomes of the cells.

tobacco leaf fragments = test: Tobacco leaf callus assay on glyphosate; assay type: cell-based, tobacco (Samsun variety); conditions: 0.5 mM glyphosate, 10 days
Description: Transformed tobacco plants (Samsun variety) were produced and grown by the method described in Example 4, substituting transformed tobacco leaf disks for transformed petunia leaf disks.
Tobacco plants were tested for glyphosate resistance using the method described for tomato plants in Example 5. Tobacco leaf fragments from plants containing vector alone (pMON200) or the pMON546 chimeric EPSPS gene were incubated on callus medium containing 0.5 mM glyphosate.

soybean callus = test: Soybean callus growth on MS medium with glyphosate; assay type: cell-based, Glycine canescens
Description: Sterile hypocotyl pieces of Glycine canescens, a type of soybean, were infected with the A. tumefaciens strain containing the chimeric EPSPS gene as described in Example 2. Nurse culture plates were made which contained a medium of 10% of the normal level of MS salts (GIBCO), B5 vitamins, 3 g/l sucrose, 2 mg/l napthalene acetic acid, 1 mg/l benzyladenine, and 0.5 mM arginine. The pH was adjusted to 5.7 before autoclaving.
The infected soybean hypocotyls were incubated at 26° C. for two days and transferred to a similar medium (except that the MS salts were not diluted) and additionally containing 500 mg/l carbenicillin, 100 mg/l cefotaxime and 100 mg/l kanamycin. Under these conditions, only transformed soybean callus was able to grow.
Control tissue was produced using A. tumefaciens cells containing the helper Ti plasmid pTiT37-SE and a plant transformation vector pMON200. See Fraley et al, Biotechnology Vol. 3, 1985, described herein. The co-integrate pTiT37-SE contained a T-DNA region with a NOS/NPTII/NOS kanamycin resistance gene and a NOS scorable marker gene identical to pMON200, but without the CaMV 35S/EPSPS/NOS gene.
After 14-17 days, soybean callus transformed with either the vector alone (pMON200 plasmid) or with the vector containing a chimeric EPSPS gene was transferred to petri dishes containing MS medium and 0, 0.5 mM or 1.0 mM glyphosate.
Within 18-20 days after transfer to the media containing glyphosate, actively growing callus tissue appeared in all dishes containing no glyphosate.

[1] = system: leaf tissue from transgenic shoots of B. napus; test: Oil seed rape leaf tissue tolerance test on medium with glyphosate; assay type: cell-based, Brassica napus; conditions: 0.5 mM glyphosate
Description: The four terminal intervals from B. napus plants (growth chamber grown in soil) are surface sterilized in sodium hypochlorite and cut into 5 mm sections. The upper surface of each piece is inoculated with an overnight liquid culture of A. tumefaciens containing the above described transformation vector and helper plasmid pTiT37-SE and incubated for 2 to 3 days on nurse culture plates containing 1/10 MS medium with 1 mg/l BA. The explants are then transferred to MS medium containing 1 mg/l BA, 500 mg/l carbenicillin and 100 mg/l kanamycin. After 3 to 6 weeks, leaf tissue from transgenic shoots that have developed is transferred to the same medium but with 0.5 mM glyphosate instead of the kanamycin to test for tolerance.
Control tissue is prepared using A. tumefaciens cells containing helper plasmid pTiT37-SE and vector pMON200.

[2] = system: sunflower tumors and callus; test: Sunflower tumor and callus tolerance to glyphosate; assay type: cell-based
Description: The following procedures are utilized to obtain transformed sunflower tissue and shoots. Tumors are incited on sterile sunflower seedlings. Sunflower seeds are surface sterilized with 40% Chlorox and sterile distilled water rinses. The seeds are germinated on an agar medium containing B5 salts, 0.5% sucrose and 0.8% agar. Seven-day old seedlings are inoculated with overnight cultures of Agrobacterium strains carrying pTiB6S3-SE by scoring the internode or stabbing the internode with a syringe and using another syringe to introduce the bacteria into the wound. Tumors form in 2-3 weeks. The tumors are removed from the seedlings and grown independently on MS medium without hormones. Transformed callus and shoots are also obtained following a different procedure. Seeds are surface sterilized and placed on the germination medium above. Germination is carried out in the light for 10 days. Hypocotyl segments, 2-3 mm are, excised and inoculated with Agrobacterium strains containing engineered constructs. The hypocotyls are co-cultured for 2 days on a medium containing MS salts and vitamins, 5 g/l KN03, 100 mg/l inositol, 40 mg/l adenine sulfate, 500 mg/l casamino acids, 1 mg/l NAA, 1 mg/l BA, 0.1 mg/l GA3, […] and 8 gm/l agar. After co-culture, the hypocotyls are placed on the same medium but containing 300 mg/l kanamycin and 500 mg/l carbenicillin.
A. tumefaciens containing binary vectors pMON546 and helper plasmid pTiB6S3-SE are used to produce tumors and callus and regenerated plants.

flax callus = test: Flax callus resistance to glyphosate; assay type: cell-based; conditions: glyphosate between 5.0 and 20.0 mM
Description: Flax seeds are surface-sterilized with 70% ethanol, 25% Chlorox and rinsed with sterile distilled water. The seeds are placed on solid MS medium and allowed to germinate in the light for 5-7 days. The hypocotyls are removed aseptically and inoculated with A. tumefaciens cells containing the above-described transformation vector and helper plasmid pTiB6S3-SE or pTiT37-SE and permitted to co-culture for 2 days on MS medium containing 1 mg/l benzylaminopurine, 0.02 mg/l naphthalene acetic acid and 4% sucrose. The hypocotyls are then placed on MS medium supplemented with 400 mg/l kanamycin and 500 mg/l carbenicillin.
Control tissue is prepared using A. tumefaciens cells containing helper plasmid pTiB6S3-SE or pTiT37-SE and vector pMON200.

O=C(O)CNCP(=O)(O)O [glyphosate, N-phosphonomethylglycine]
viability at 500 µM (MP4 cells; estimated, read-out: cells which survived, share of the starting population): < 1%
ability of cells to reproduce (MP4 cells; MS media): large majority of cells were unable to reproduce
callus growth from leaves (tobacco leaf fragments; control tobacco leaves (pMON200 vector alone)): completely inhibited and showed no signs of callus growth
glyphosate resistance of leaves (tobacco leaf fragments; leaves from plants transformed with chimeric petunia EPSPS gene (pMON546)): confers glyphosate resistance to tobacco plants
callus growth (soybean callus; callus colonies containing the chimeric EPSPS gene, 0.5 mM glyphosate, 18-20 days): showed definite growth
callus growth (soybean callus; control callus (pMON200 vector alone), 0.5 mM glyphosate, 18-20 days): little growth in the dishes containing control callus
callus growth (soybean callus; control tissues (pMON200), 1.0 mM glyphosate): no callus growth from the control tissues
callus growth (soybean callus; transformed callus containing the chimeric EPSPS gene, 1.0 mM glyphosate): some growth of the transformed callus
tissue growth ([1]; transformed (pMON200) and non-transformed controls): are inhibited
tissue growth ([1]; transgenic tissue that expresses EPSPS): are able to grow in the presence of glyphosate
callus response ([2]; callus without the glyphosate resistance gene): kill callus without the glyphosate resistance gene
tumor response ([2]; control tumors which do not contain the glyphosate resistance gene): bleach and kill control tumors
callus tolerance ([2]; non-tumorous callus transformed with pMON546): show tolerance to levels of glyphosate
tumor tolerance ([2]; tumors produced with pMON546): exhibit tolerance to glyphosate
tissue response (flax callus; control tissue (pMON200)): bleaches and dies
callus resistance (flax callus; selected callus transformed with EPSPS vector): demonstrates resistance to glyphosate
